From patent US20020177575A1, “Identification of farnesyl-protein transferase as a target for systemic lupus erythematosus therapies” (priority 2001, published 2002)

What was measured:
B6.Sle1(a+b) mice = test: Suppression of anti-nuclear autoantibody (ANA) production in B6.Sle1(a+b) mice; anti-histone-DNA ANA in sera by ELISA; assay type: in vivo, mouse; details: daily intraperitoneal injection, 75 mg/kg body weight for 4 weeks, sera before, during and after treatment
Method: T0 represents the OD value for measuring the titer of anti-Histone/DNA antibodies before treatment. T represents the OD value for measuring the titer of anti-Histone/DNA antibodies at a time point during or after treatment. Each point represents Mean±SE. Mice in control group were given vehicle (Tricaprylin) only.
To study whether POH can inhibit anti-nuclear autoantibody (ANA) production, the inventors treated B6.Sle1(a+b) mice by daily intraperitoneal injection of POH at a dose of 75 mg/kg body weight for 4 weeks. Sera were collected before, during, and after treatment. Levels of anti-histone-DNA ANA were determined by ELISA.

[1] = test system: ras protein farnesylation; details: has been shown (prior knowledge); cited from earlier work

## C=C(C)[C@@H]1CC=C(CO)CC1 [POH, Perillyl alcohol]
B6.Sle1(a+b) mice; FIG. 3
  Sle1-mediated anti-histone-DNA ANA production: can be suppressed
B6.Sle1(a+b) mice; FIG. 3, listed as perillyl alcohol (POH)
  Sle1-mediated anti-histone-DNA ANA production: Inhibitory effect
[1]
  ras protein farnesylation: has been shown to inhibit ras protein farnesylation
